{"source": "patent US20100047284A1", "about": "(priority 2006, published 2010)", "key": {"radial artery tissue": {"tested_on": "radial artery tissue", "assay": "spontaneous contractility of radial artery tissue", "assay_type": "cell-based, Human", "details": "radial artery tissue (FIG. 11A)"}, "radial artery rings": {"tested_on": "radial artery rings", "assay_type": "cell-based, Human"}, "[1]": {"tested_on": "endothelial mediated relaxation"}, "vascular smooth muscle": {"tested_on": "vascular smooth muscle", "assay_type": "cell-based, Human"}, "mammary artery samples": {"tested_on": "mammary artery samples", "assay_type": "cell-based, Human"}}, "note": "“Also recorded” adds a separate entry of the source.", "data": [{"compound": "CC(COc1ccccc1)N(CCCl)Cc1ccccc1", "note": "(stereo not shown) [phenoxybenzamine, Phenoxybenzamine, reference compound]", "values": [{"measurement": "effect on spontaneous contraction", "setting": "radial artery tissue", "result": "no effect; also recorded: lack of effect"}, {"measurement": "effect on angiotensin II-induced contraction", "setting": "radial artery rings", "result": "no inhibitory effect"}]}, {"compound": "cholera toxin", "values": [{"measurement": "endothelial mediated relaxation after incubation with toxin", "setting": "[1]", "result": "no impairment"}, {"measurement": "optimal concentration most effective at reducing contractile activity", "setting": "vascular smooth muscle", "result": "about 0.6 μM; also recorded: about 51 μg/ml"}, {"measurement": "concentration most effective at inhibiting angiotensin II induced contraction", "setting": "mammary artery samples", "result": 0.57, "unit": "µM"}, {"measurement": "concentration most effective at inhibiting adrenaline-mediated contraction", "setting": "radial artery rings", "result": 25, "unit": "µg/mL"}, {"measurement": "effect on dose response curves to adrenaline, angiotensin II or PGF2α", "setting": "radial artery rings", "result": "inhibited the contraction"}, {"measurement": "effect on subsequent vasoconstrictor responses (in words)", "setting": "radial artery rings", "result": "inhibit the maximal contraction force produced and the sensitivity"}, {"measurement": "incubation time at which toxin is effective in inhibiting adrenaline-induced vasoconstriction", "setting": "radial artery rings", "result": 30, "unit": "min"}, {"measurement": "inhibition of contraction, depending on the vasoconstrictor", "setting": "radial artery rings", "result": "15-50%"}]}, {"compound": "pertussis toxin", "values": [{"measurement": "endothelial mediated relaxation after incubation with toxin", "setting": "[1]", "result": "no impairment"}, {"measurement": "concentration most effective at inhibiting adrenaline-mediated contraction", "setting": "radial artery rings", "result": 50, "unit": "µg/mL"}, {"measurement": "effect on dose response curves to adrenaline, angiotensin II or PGF2α", "setting": "radial artery rings", "result": "inhibited the contraction"}, {"measurement": "effect on subsequent vasoconstrictor responses (in words)", "setting": "radial artery rings", "result": "inhibit the maximal contraction force produced and the sensitivity"}, {"measurement": "incubation time at which toxin is effective in inhibiting adrenaline-induced vasoconstriction", "setting": "radial artery rings", "result": 60, "unit": "min"}, {"measurement": "inhibition of contraction, depending on the vasoconstrictor", "setting": "radial artery rings", "result": "20-60%"}]}]}
